# Assay results: PubChem BioAssay AID463203 (Broad Institute, 2010)
# Active and inactive are the calls of the source.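 How the source made its calls: active means more than half of replicate measurements showing over 20% loss of kinase signal relative to plate controls; inconclusive means some but at most half of replicates over 20% loss; inactive means no replicate over 20% signal loss.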
# Molecular target: Glycogen synthase kinase-3 alpha (Homo sapiens) (UniProt P49840)
# Test: concentration-response blocking of human GSK3A – biochemical, luminescence, cell-free homogeneous, retest, dose response (AID 463203)
# Conditions: GSK-3 alpha enzyme, ADP-Glo luminescence, 60 min
# Chain of Glycogen synthase kinase-3 alpha (Homo sapiens) (P49840 whole entry, looked up): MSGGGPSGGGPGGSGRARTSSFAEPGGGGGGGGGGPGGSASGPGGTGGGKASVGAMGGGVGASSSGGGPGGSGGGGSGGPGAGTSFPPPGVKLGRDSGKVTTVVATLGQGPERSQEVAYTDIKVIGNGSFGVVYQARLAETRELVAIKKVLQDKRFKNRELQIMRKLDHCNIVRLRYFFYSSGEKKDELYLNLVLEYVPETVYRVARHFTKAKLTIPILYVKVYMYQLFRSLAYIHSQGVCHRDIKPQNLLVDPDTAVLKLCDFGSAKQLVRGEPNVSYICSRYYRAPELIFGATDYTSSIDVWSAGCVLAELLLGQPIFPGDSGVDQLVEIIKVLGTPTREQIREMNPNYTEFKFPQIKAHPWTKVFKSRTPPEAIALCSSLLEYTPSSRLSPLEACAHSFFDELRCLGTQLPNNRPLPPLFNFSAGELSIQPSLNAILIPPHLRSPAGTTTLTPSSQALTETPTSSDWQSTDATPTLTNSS
row,Compound,AC50
1,CCCc1c(C(=O)N/N=C/c2cccnc2)nnn1-c1nonc1N,> 30 µM (inactive)
2,O=C(COc1cccc2cccnc12)N/N=C/c1ccccc1O,> 30 µM (inactive)
3,O=C(Nc1ccsc1C(=O)O)c1ccccc1,> 30 µM (inactive)
4,O=C(NCCCN1CCN(Cc2ccccc2Cl)CC1)Nc1ccccc1,> 30 µM (inactive)
5,Cc1ccc(Sc2ccc(NC(=O)CCl)cc2)c(C)c1,> 30 µM (inactive)
6,CCOC(=O)N1CCC(N2CCN(S(=O)(=O)c3ccc(C)cc3)CC2)CC1,> 30 µM (inactive)
7,Cc1nnc(NC(=O)c2cccc(S(=O)(=O)N3CC(c4ccccc4)CC3=O)c2)s1 (configuration not stated),> 30 µM (inactive)
8,CCOC(=O)c1cc(C)[nH]c1C,> 30 µM (inactive)
9,CC1CN(c2nc(Nc3ccccc3F)nc(N)c2[N+](=O)[O-])CC(C)O1 (configuration not stated),9.19 µM
10,COc1ccccc1/C=N/NC(=O)c1nnn(-c2nonc2N)c1-c1cccs1,0.779 µM
11,COc1cccc(C2C3(C#N)C(N)=NC(OC)(OC)C23C#N)c1 (configuration not stated),> 30 µM (inactive)
12,COC1(OC)N=C(N)C2(C#N)C(c3ccc4c(c3)OCO4)C12C#N (configuration not stated),20.1 µM
13,CCOC(=O)c1[nH]c2c(c1-c1ccccc1)C(=O)CC(c1ccc(OCC)cc1)C2 (configuration not stated),> 30 µM (inactive)
14,COc1c2ccccc2c(OC)c2ccccc12,> 30 µM (inactive)
15,Fc1ccc(Nc2ncnc3ccccc23)cc1,> 30 µM (inactive)
16,CCc1ccc(N2CSC3=C(C#N)C(c4cccs4)CC(=O)N3C2)cc1 (configuration not stated),28.8 µM
17,NCc1cccc(CNc2ccc([N+](=O)[O-])cc2C(N)=O)c1,5.96 µM
18,O=C(Nc1cccc(-c2cnc3ccccc3n2)c1)c1ccncc1,> 30 µM (inactive)
19,O=C(NC1CCCC1)c1ccc(Cn2c(=O)[nH]c3ccsc3c2=O)cc1,> 30 µM (inactive)
20,C/C(=N\NC(=O)c1nnn(-c2nonc2N)c1CN(C)C)c1ccco1,> 30 µM (inactive)
21,O=C(O)c1ccc(N=Cc2c(O)ccc3oc4c(c23)CCCC4)cc1,> 30 µM (inactive)
22,Cc1nc2ccc(-c3ccccc3)cc2o1,> 30 µM (inactive)

row,Compound,AC50
1,Nc1nc(-c2ccccc2)nc(-c2ccccc2O)n1,21.4 µM
2,COC(=O)c1c(NC(=O)CN2C(=O)NC3(CCC(C(C)(C)C)CC3)C2=O)sc2c1CCCCC2 (configuration not stated),> 30 µM (inactive)
3,Cc1cc2nc(-c3cccnc3SCC(=O)NC3CC3)[nH]c2cc1C,> 30 µM (inactive)
4,Cc1cn(C2OC(CC(=O)Oc3ccccc3)C(O)C2O)c(=O)[nH]c1=O (configuration not stated),19.1 µM
5,N#CCCn1cc(/C=N/O)c(-c2ccc(Cl)cc2)n1,21 µM
6,CC(/C=N/NC(=O)CSc1nc2ccccc2n1C)=C\c1ccco1,> 30 µM (inactive)
7,O=C(COC(=O)Cc1ccsc1)Nc1ccc(Cl)cn1,28.4 µM
8,Cc1c(O)ccc2c3c(c(=O)oc12)CCC(C)C3 (configuration not stated),> 30 µM (inactive)
9,Cc1ccc(-c2nnc3n2N=C(c2ccc(Br)cc2)CS3)cc1,> 30 µM (inactive)
10,COc1ccc(/C=C2\Oc3cc(OCC(=O)N4CCC[C@H]4C(=O)O)ccc3C2=O)c(OC)c1OC,> 30 µM (inactive)
11,O=[N+]([O-])c1cccc(-c2ccn[nH]2)c1,> 30 µM (inactive)
12,Oc1ccc2cccnc2c1,> 30 µM (inactive)
13,Cc1ccc(N(CC(O)CN2CCCC2)S(=O)(=O)c2ccccc2)cc1 (configuration not stated),> 30 µM (inactive)
14,O=C(Nc1ccccc1C(=O)NC1CCCCC1)c1ccco1,> 30 µM (inactive)
15,CN(c1nc2nonc2nc1NC1CC1)C1CCOC1 (configuration not stated),> 30 µM (inactive)
16,COc1ccc(O)c(-c2nc(N)nc(N)n2)c1,3.88 µM
17,O=C(O)c1ccc(Nc2nc(-c3ccccc3)nc3ccccc23)cc1,> 30 µM (inactive)
18,O=C(c1ccccc1)c1cnc(Nc2ccccc2Cl)s1,> 30 µM (inactive)
19,CCC(=NCCO)c1c(O)n(C2CCCCC2)c(=O)[nH]c1=O,19.4 µM
20,O=c1[nH]nnc2sc3c(c12)CCCC3,> 30 µM (inactive)
21,N#Cc1sc2nc3c(c(-c4ccco4)c2c1N)CCCC3,2.42 µM
22,COC(=O)[C@@H](NC(=O)NCc1ccccc1Cl)C(C)C,> 30 µM (inactive)

row,Compound,AC50
1,COc1ccc(NC(=O)Nc2ccc(F)cc2F)c(C)c1,> 30 µM (inactive)
2,CC(CC(=O)Nc1ncc([N+](=O)[O-])s1)c1ccccc1 (configuration not stated),5.94 µM
3,Cc1cc(NC(=O)COC(=O)c2cc(S(=O)(=O)N3CCOCC3)ccc2N2CCCCC2)no1,10.1 µM
4,CCOC(=O)c1cc(CC)sc1NC(=O)COC(=O)c1ccccn1,> 30 µM (inactive)
5,COc1ccccc1NC(=O)CCSc1nnc(-c2ccc(O)cc2)o1,8.24 µM
6,CCCCOC(=O)C1=C(C)Nc2ncnn2C1c1cc(OC)ccc1OC (configuration not stated),> 30 µM (inactive)
7,COCCNC(=O)c1ccc(Cn2c(=S)[nH]c3cc4c(cc3c2=O)OCO4)cc1,> 30 µM (inactive)
8,CCCCCCCCCCOC(=O)Cn1c(COc2ccc(OC)cc2)[n+](C)c2ccccc21,> 30 µM (inactive)
9,CCCCC(NS(=O)(=O)c1ccc(OC)cc1)C(=O)O (configuration not stated),> 30 µM (inactive)
10,N/C(=N\OC(=O)c1ccc2ccccc2c1)c1cccc([N+](=O)[O-])c1,> 30 µM (inactive)
11,COc1ccc(NC(=O)c2nnn(Cc3cccc(F)c3)c2N)c(OC)c1,> 30 µM (inactive)
12,O=S(=O)(O)c1cccc(N=Nc2c(O)ccc3ccccc23)c1,8.34 µM
13,CNc1nc(Cl)c(SC)c(NC2CCCCC2)n1,> 30 µM (inactive)
14,O=C(Nc1sc2c(c1C(=O)O)CCC2)c1cccs1,> 30 µM (inactive)
15,COc1ccc(-c2nc(NC(=O)C3CC(=O)N(c4ccc5c(c4)OCCO5)C3)sc2C)cc1 (configuration not stated),> 30 µM (inactive)
16,CN1CCCN(C(=O)CC(c2ccccc2)c2ccccc2)CC1,> 30 µM (inactive)
17,Cc1onc(-c2ccccc2Cl)c1C(=O)Nc1ccc(-c2cn3cccnc3n2)cc1,> 30 µM (inactive)
18,C[C@H]1CCCC(=O)CCCCCc2cc(O)cc(O)c2C(=O)O1,28.3 µM
19,Cc1nc(C)c(C(=O)Nc2ncc([N+](=O)[O-])s2)o1,> 30 µM (inactive)
20,Cc1csc(NC(=O)C2CC(=O)N(c3ccc(C)c(C)c3)C2)n1 (configuration not stated),> 30 µM (inactive)
21,COCC(O)CSc1nc(C)[nH]c1[N+](=O)[O-] (configuration not stated),> 30 µM (inactive)
22,COc1ccc(C2=Nn3c(nnc3-c3ccncc3)SC2)cc1OC,2.37 µM

row,Compound,AC50
1,COc1ccc(Br)cc1C(=O)Nc1cccc(NC(=O)c2ccco2)c1,> 30 µM (inactive)
2,Cc1c(C(=O)N/N=C/c2cccnc2)nnn1-c1nonc1N,> 30 µM (inactive)
3,Cc1csc(NC(=O)C2CCCN(S(=O)(=O)c3cnc[nH]3)C2)n1 (configuration not stated),> 30 µM (inactive)
4,CCOC(=O)c1[nH]c2c(c1C)C(=O)CC(c1ccc(OC)c(OC)c1)C2 (configuration not stated),> 30 µM (inactive)
5,COc1cc(C(=O)NCC(=O)N/N=C(C)\C=C\c2ccccc2)cc(OC)c1OC,> 30 µM (inactive)
6,Cc1c(C(=O)N2CCOCC2)oc2ccc(S(=O)(=O)N3CCCC3)cc12,> 30 µM (inactive)
7,COc1ccc(NC2CC(=O)NC2=O)cc1 (configuration not stated),> 30 µM (inactive)
8,O=[N+]([O-])c1cnccc1NC1CCCCC1,> 30 µM (inactive)
9,CC(C)(C)N=Cc1c(O)ccc2oc3c(c12)CCCC3,> 30 µM (inactive)
10,C/C(=N\NC(=O)c1nnn(-c2nonc2N)c1-c1cccs1)c1cccc(O)c1,1.42 µM
11,COC(=O)c1sc2nc(N3CCCCC3)c3c(c2c1N)CCCC3,> 30 µM (inactive)
12,COc1cc(/C=C2\Oc3ccc(C#Cc4ccc(O)cc4)cc3C2=O)cc(OC)c1,> 30 µM (inactive)
13,CN(c1ccccc1)c1nc(N)c([N+](=O)[O-])c(Nc2ccccc2F)n1,> 30 µM (inactive)
14,CCCCCCCNc1nc(Cl)nc(NCCO)n1,> 30 µM (inactive)
15,CC(C)NC(=O)Nc1cccc(Cl)c1,> 30 µM (inactive)
16,COc1ccc(C(=O)NCC(=O)N/N=C/C=C/c2ccccc2)cc1OC,> 30 µM (inactive)
17,CCOc1cc(/C=C2\N=C3CCCCCN3C2=O)ccc1O,19.3 µM
18,O=S(=O)(NCC1CCCO1)c1ccc(Cl)nc1 (configuration not stated),> 30 µM (inactive)
19,N#CC1=C(SCC(=O)c2ccccc2)NC2=C(C(=O)CCC2)C1c1ccco1 (configuration not stated),> 30 µM (inactive)
20,O=C(Nc1sc2c(c1C(=O)N1CCOCC1)CCCCC2)c1cccnc1,> 30 µM (inactive)
21,CN(C)/C=C/c1[nH]c(=O)[nH]c(=O)c1[N+](=O)[O-],> 30 µM (inactive)
22,Nc1ncc(-c2ccccc2)c(-c2ccc(OCc3ccccc3)cc2O)n1,> 30 µM (inactive)

row,Compound,AC50
1,CCc1nnc(NC(=O)CCN2C(=O)c3ccccc3C2=O)s1,> 30 µM (inactive)
2,Cc1nn(C)c(C)c1CN(C)S(=O)(=O)c1ccc(F)cc1,> 30 µM (inactive)
3,c1ccc2c(c1)Sc1ccccc1-n1cnnc1-2,> 30 µM (inactive)
4,CCOC(=O)c1c(Cc2ccccc2)c[nH]c1C,> 30 µM (inactive)
5,Cn1c(=O)c2c(-c3ccccc3)n(Cc3ccccn3)cc2n(C)c1=O,> 30 µM (inactive)
6,CCNc1ccccc(C(=O)/C=C/c2ccc3c(c2)OCO3)c1=O,> 30 µM (inactive)
7,Nc1ccccc1-c1nc2ccccc2[nH]1,> 30 µM (inactive)
8,COc1ccc(-c2nc(N)ncc2-c2ccccc2)c(O)c1,15.5 µM
9,O=C(CSc1nnc(-c2ccc(O)cc2)o1)Nc1cccc(O)c1,21.6 µM
10,COc1ccc(OC)c(/C=C2\Oc3cc(OCC(=O)N4CCC[C@H]4C(=O)O)ccc3C2=O)c1,> 30 µM (inactive)
11,CCOC(=O)N1CC=C2C(C#N)=C(N)C(C#N)(C#N)[C@H](c3cccs3)C2C1 (some centres not stated),23.1 µM
12,O=Cc1cn(-c2ccccc2)nc1-c1cccnc1,> 30 µM (inactive)
13,CCN1CCN(c2c(Cl)cccc2NC(=O)c2ccc(Br)o2)CC1,2.59 µM
14,O=C(Nc1c(C(=O)C2CC2)oc2ccccc12)c1ccc(Cl)cc1,> 30 µM (inactive)
15,O=C(Nc1ccccc1N1CCOCC1)c1cnccn1,28.6 µM
16,CCCOc1ccccc1NC(=O)Nc1ccccc1Cl,> 30 µM (inactive)
17,Nc1ncnc2nc(SCc3ccc(Cl)cc3Cl)[nH]c12,> 30 µM (inactive)
18,O=C(NCCN1CCc2ccccc2C1)Nc1ccc(F)cc1,> 30 µM (inactive)
19,CC1(c2ccccc2)CC(C)(C)N2C(=O)/C(=C3\SC(=S)NC3=O)c3cccc1c32 (configuration not stated),> 30 µM (inactive)
